Measured values as given in patent publication US11542282B2, “Low affinity poly(AD-ribose) polymerase 1 dependent cytotoxic agents” (THE TRUSTEES OF THE UNIVERSITY OF PENNSYLVANIA, priority 2018, dated 2023).

Assays:
[1] = PET imaging of brain uptake in rhesus macaques; assay type: in vivo; conditions: intravenous injection, all brain regions, FIG. 5A
Experimental: All animal studies were performed under protocols approved by the University of Pennsylvania Institutional Animal Care and Use Committee. Male rhesus macaques (13-21 year old) were sedated with ketamine/dexdomidor and anesthesia maintained for imaging with 1% isoflurane. Temperature was maintained with a recirculating water warm pad and vital signs such as blood pressure, pulse oximetry, and EKG were monitored continuously. Three rhesus macaques were scanned on the G-PET, a high sensitivity, high resolution PET scanner using gadolinium orthosilicate crystals incorporated into an Anger-logic detector developed for brain imaging. Data was acquired for up to 50 min (6×10 sec, 3×60 sec, 3×120 sec, 3×180 sec, 4×300 sec, and 1 ×600 sec) in list mode after an intravenous injection of 101.6 MBq [^18F]FTT to one of the rhesus macaques, and 91.4-128.8 MBq [^18F]31 to two of the rhesus macaques. A venous blood sample was drawn into a heparinized syringe at 37 min post […] injection for metabolite analysis. […]
(§1) These images are similar to the those obtained and expected with [^18F]FTT (FIG. 5B), showing the PARPi to be non-BBB penetrable. Metabolic stability of [^18F]31 was assessed using the monkey blood from each imaging study and found 42% and 45% of the parent compound intact at 40 min and 37 min, respectively.

[2] = Metabolite analysis of monkey blood from the imaging studies; assay type: in vivo, rhesus macaques
Experimental: All animal studies were performed under protocols approved by the University of Pennsylvania Institutional Animal Care and Use Committee. Male rhesus macaques (13-21 year old) were sedated with ketamine/dexdomidor and anesthesia maintained for imaging with 1% isoflurane. Temperature was maintained with a recirculating water warm pad and vital signs such as blood pressure, pulse oximetry, and EKG were monitored continuously. Three rhesus macaques were scanned on the G-PET, a high sensitivity, high resolution PET scanner using gadolinium orthosilicate crystals incorporated into an Anger-logic detector developed for brain imaging. […]
The blood samples were centrifuged at 3000 G for 10 min to separate plasma and red blood cells. […] After the supernatant had been separated from the pellet, each portion was counted with a gamma counter (PerkinElmer Wizard 2480) to determine the extraction efficiency. […] The collected HPLC fractions were measured by Gamma Counter for further data analysis. Meanwhile the cold reference was also injected and monitored at 254 nm UV wavelength.
as §1

[3] = Metabolic stability in rodent studies (mice blood and brain); assay type: in vivo; conditions: 5 min
Experimental: Rodent studies were then performed with [^18F]31, including control and P-gp knockout (k/o) mice models to validate the tracer as a non-P-gp substrate.

O=C(c1cc(Cc2n[nH]c(=O)c3ccccc23)ccc1F)N1CCC(OCC[18F])CC1 [[^18F]31]
brain uptake (PET) [1]: low brain uptake | brain uptake (PET) ([1]; listed as [18F]31): no appreciable brain uptake | parent compound intact ([2]; 37 min): 45% | parent compound intact ([2]; 40 min): 42% | decomposition of the parent compound [3]: over 80%
